{"source": "patent US20060287353A1", "about": "“Method for preventing or treating ischemia-or hemorrhage-induced brain damage using a macrolide compound” (Astellas Pharma Inc., priority 1999, published 2006)", "key": {"[1]": {"tested_on": "rat endothelin-induced MCA occlusion model", "assay": "Neuroprotective efficacy in the rat endothelin-induced MCA occlusion model (ET-1 model of stroke)", "assay_type": "in vivo", "conditions": "five minutes post-lesion, male Sprague Dawley rats, damage assessed three days post-lesion", "procedure": "Neuroprotective efficacy of the compound (I) in the rat endothelin-induced MCA occlusion model\nThe compound (I) was dissolved in a polyoxyethylene-hydrogenated castor oil 60/ethanol (400mg/1 ml) solution and administered at 1 and 3 mg.kg^−1. All drugs and relevant control were administered in a volume of 2 ml. kg^−1. MCA occlusion by the endothelin method was performed on male Sprague Dawley rats (271- 324g) as described in U.S. Pat. No. 5,648,351. All drugs were infused through the i.v. catheter at 1 ml min^−1, five minutes post-lesion. The animals were sacrificed by cardiac infusion under barbiturate anaesthesia. Volume of lesion was calculated from measured areas of damage (as assessed three days post-lesion) using the Trapezoid Rule. Results are presented as volume (mm^3)±SEM. Statistical analysis was performed using ANOVA and post hoc Student-Newman-Keuls test, where p<0.05 was set as an acceptable level for significance."}, "[2]": {"assay": "Immunosuppressive activity (statement, no method described)", "conditions": "stated in text without test details"}}}
{"smiles": "COC1CC(/C=C(\\C)C2OC(=O)C3CCCCN3C(=O)C(=O)C3(O)OC(C(OC)CC(C)C/C(C)=C/C(CC(C)=O)C(=O)CC(O)C2C)C(OC)CC3C)CCC1O", "note": "(stereo not drawn) [compound (I)]", "values": [{"measurement": "protection of the cortex (lesion volume) against vehicle", "setting": "[1]; 1 mg.kg^-1 i.v., n=14", "result": 61, "unit": "%"}, {"measurement": "protection of the cortex (lesion volume) against vehicle", "setting": "[1]; 3 mg.kg^-1 i.v., n=9", "result": 42, "unit": "%"}, {"measurement": "immunosuppressive activity", "setting": "[2]", "result": "no immunosuppressive activity"}]}
